Values quoted from earlier work in US5358942A, “Inhibition of protein kinase C with Cyclic phosphonate compounds” (Louisiana State University, priority 1993, dated 1994).

Test system: carnitine palmitoyltransferase (CPT)

**Q.** Which “inhibition of carnitine palmitoyltransferase (CPT)” value does the source give for `CCCCCCCCCCCCCCC[C@@]1(O)C[N+](C)(C)C[C@H](CC(=O)O)O1.[Br-]` [Hemipalmitoyl carnitinium (HPC), Hemipalmitoyl carnitinium] here?
**A.** potently inhibits
